Assay results published in patent US10428030B2, “Heterocycle derivatives and their use for the treatment of CNS disorders” (Trillium Therapeutics Inc., priority 2015, dated 2019).

Key:
corneal kindled mice = test: Corneal kindling mouse model (focal seizures); assay type: in vivo
Text: Mice are kindled electrically with 3 sec stimulation, 8 mA, 60 Hz, and coneal electrodes to a criterion of 10 consecutive Stage 5 seizures (facial clonus and head nodding progressing to forelimb clonus, and finally rearing and falling accompanied by a generalized clonic seizure as described by Racine (Racine R J. Neurophysiol., 1972. 32: p. 281-294) Stage 5 is generally reached after twice daily stimulation for 8 days. With continued stimulation once a day, animals usually progress to a reproducible Stage 5 after 10-14 additional days. At least 72 hours after the mice have been kindled, the test substance is administered either i.p. or p.o. and, at the previously determined TPE, each animal is given the electrical stimulus indicated above. Following stimulation, the animals are observed for the presence or absence of the rearing and falling criteria of a Stage 5 seizure. Treated animals not displaying a Stage 3, 4, or 5 seizure are considered protected. The dose of the test substance is varied between the limits of 0 and 100% efficacy, and the ED50 and 95% confidence intervals calculated by probit analysis. Mean values and the S.E.M. are calculated for the length of clonus and seizure duration and p values are determined by the Student's t-test.

male CF-1 mouse = test: Mouse formalin test (pain); assay type: in vivo; conditions: 41 mg/kg i.p.; most pronounced in second (late) phase
Procedure: The formalin test is performed according to the method of Tjolsen et al. Pain, 1992. 51(1). An injection of 0.5% formalin (Sigma) is made into the planter region of the right hind paw of an adult (26-30 g) male CF-1 mouse. Sub-dermal formalin injection elicits a distinct behavioral profile characterized by the mouse licking the affected paw. The behavior is characteristically biphasic in nature. For example, immediately following the injection the mouse licks the paw intensely for approximately 10 min. This is referred to as phase 1 (or, the acute phase) and is followed by a brief latent period (<5 minutes) where there is little behavioral activity. A more prolonged period of about 20-30 min of activity then ensues, which constitutes phase 2 (or, the inflammatory phase). […] The cumulative length of licking for each 2-min time period is measured. […] The area under the curve (AUG) is calculated for both the acute and inflammatory phases of the licking response for individual animals in both the test and control groups. The percent of control AUG for drug-treated animal groups is determined using the Graph-Pad Prism Version 3.03. The total AUG for each phase of the test group is also calculated and converted to percentage of total AUG of control for each phase. The average and S.E.M. for both the drug treated and control percentages are calculated and tested for significant difference.

Rotorod (ip), mouse = conditions: in vivo, mice
Male Sprague-Dawley rats = test: Maximal Electroshock Seizure (MES) rat model; assay type: in vivo; conditions: po, 4 hours
Procedure: Male, Sprague-Dawley rats and CD-1 mice were used for all studies. All animals were allowed ad-lib access to food and water except during experiment. Animals were housed within an animal vivarium maintained under a 12 h light:dark cycle (lights on: 07:00 h), and all experiments were conducted in the animals light phase. For all experiments, animals were habituated to the vivarium for a minimum of 72 h before experimentation. The experimental procedures used in the present investigation were conducted under the Association for Assessment and Accreditation of Laboratory Animal Care (AAALAC) and the Canadian Council on Animal Care (CCAC) guidelines.
All compounds were sonicated in 5% Tween 80® in saline or methylcellulose 0.5% (wgt/vol), using MC and sterile water and injected in a dose volume of 5 ml/kg or 10 ml/kg (rat), and 10 ml/kg (mouse). Drugs were administered by either the oral, intraperitoneal or intravenous route.
Male Sprague-Dawley rats of body weight 80-100 g were used for these studies. Each experiment was conducted over 3 consecutive days. On day 1 and 2, each rat received a single electrical stimulus (150 mA, 0.2 s duration, 60 Hz) via corneal electrodes moistened with saline (Shock stimulator type 221: Harvard apparatus). […] Typically this reflected approximately 70-90% of the initial group.
On the test day following a defined drug pretreatment period, rats received a maximal electroshock (150 mA, 0.2 s duration, 60 Hz) via corneal electrodes. Protection was defined as absence of a full tonic seizure within 10 s of stimulus delivery. Twenty minutes before the MES procedure, the animals were tested on a fixed speed rotorod (best score from 3 trials at 8 r.p.m, trial duration=60 s) to give an early assessment of drug effect on gross motor function.

ED50 at 0.5 hours (Rotorod (ip), mouse): > 500 mg/kg
Compound: O=C1COc2cc(OCc3ccc(OC(F)F)cc3)ccc2N1 [Compound I(B)]
ED50 (corneal kindled mice; Mus musculus, corneal kindled mice, read-out: ED50, suppression of fully kindled (stage 5) seizures): 119 ± 1.81 mg/kg | Average Seizure (corneal kindled mice; dose 35 mg/kg): 5 | N/F (number of animals active over the number tested) (corneal kindled mice; dose 35 mg/kg): 0/8 | Average Seizure (corneal kindled mice; dose 70 mg/kg): 4.6 | N/F (number of animals active over the number tested) (corneal kindled mice; dose 70 mg/kg): 1/8 | Average Seizure (corneal kindled mice; dose 140 mg/kg): 2.4 | N/F (number of animals active over the number tested) (corneal kindled mice; dose 140 mg/kg): 5/8 | Average Seizure (corneal kindled mice; dose 300 mg/kg): 0.8 | N/F (number of animals active over the number tested) (corneal kindled mice; dose 300 mg/kg): 8/8 | effect on fully kindled (stage 5) seizures (corneal kindled mice; vs vehicle controls): dose related suppression of fully kindled (stage 5) seizures | number of paw licks (male CF-1 mouse): significant decrease in the number of paw licks | ED50 (Male Sprague-Dawley rats): 20.1 ± 0.7 mg/kg
